In PubChem BioAssay AID2060888 (Molecular Pharmacology Branch, DTP, NCI, 2025):
Where “and” joins values, the source holds several entries; their conditions need not be identical. Equal entries are not always repeated.

System: 695427-040-R-J1-PDC complex spheroid viability
Assay: Anticancer human tumor 695427-040-R-J1-PDC patient-derived colon adenocarcinoma cell line growth inhibition [RAS]
Settings: for viability, T/C: stronger effect = lower value
Summary of the method: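 Agents were tested in combination matrices in half-log decrements from a top concentration at or near clinical Cmax (10 microM if undetermined). Targets were multi-cell spheroids of tumour lines plus HUVEC and MSC stromal cells.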
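Also: viability read after seven days of drug exposure.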
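For viability, T/C in this document: 100% = DMSO vehicle control viability.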

CCN1CCN(Cc2ccc(Nc3ncc(F)c(-c4cc(F)c5nc(C)n(C(C)C)c5c4)n3)nc2)CC1 + C#Cc1c(F)ccc2cc(O)cc(-c3ncc4c(N5CC6CCC(C5)N6)nc(OCC56CCCN5CC(F)C6)nc4c3F)c12
IC50 (curve of first compound, second compound 0.0316 µM): > 1000 nM
IC50 (curve of first compound, second compound 0.1 µM): > 1000 nM
IC50 (curve of first compound, second compound 0.316 µM): > 1000 nM
IC50 (curve of first compound, second compound 1 µM): > 1000 nM
IC50 (curve of first compound, second compound 3.16 µM): > 1000 nM
IC50 (curve of first compound, second compound 10 µM): < 3.16 nM
viability, T/C (second compound 0.0316 µM, first compound 0.00316 µM): 94.9%
viability, T/C (second compound 0.0316 µM, first compound 0.01 µM): 102%
viability, T/C (second compound 0.0316 µM, first compound 0.0316 µM): 85.8%
viability, T/C (second compound 0.0316 µM, first compound 0.1 µM): 88.4%
viability, T/C (second compound 0.0316 µM, first compound 0.316 µM): 100%
viability, T/C (second compound 0.0316 µM, first compound 1 µM): 106%
viability, T/C (second compound 0.1 µM, first compound 0.00316 µM): 93%
viability, T/C (second compound 0.1 µM, first compound 0.01 µM): 92.9%
viability, T/C (second compound 0.1 µM, first compound 0.0316 µM): 90.5%
viability, T/C (second compound 0.1 µM, first compound 0.1 µM): 79.4%
viability, T/C (second compound 0.1 µM, first compound 0.316 µM): 91.6%
viability, T/C (second compound 0.1 µM, first compound 1 µM): 96.3%
viability, T/C (second compound 0.316 µM, first compound 0.00316 µM): 83.1%
viability, T/C (second compound 0.316 µM, first compound 0.01 µM): 85.3%
viability, T/C (second compound 0.316 µM, first compound 0.0316 µM): 78.1%
viability, T/C (second compound 0.316 µM, first compound 0.1 µM): 78.6%
viability, T/C (second compound 0.316 µM, first compound 0.316 µM): 77.7%
viability, T/C (second compound 0.316 µM, first compound 1 µM): 85.6%
viability, T/C (second compound 1 µM, first compound 0.00316 µM): 75.2%
viability, T/C (second compound 1 µM, first compound 0.01 µM): 68.1%
viability, T/C (second compound 1 µM, first compound 0.0316 µM): 61%
viability, T/C (second compound 1 µM, first compound 0.1 µM): 60.5%
viability, T/C (second compound 1 µM, first compound 0.316 µM): 74.1%
viability, T/C (second compound 1 µM, first compound 1 µM): 71.3%
viability, T/C (second compound 3.16 µM, first compound 0.00316 µM): 53.3%
viability, T/C (second compound 3.16 µM, first compound 0.01 µM): 52.9%
viability, T/C (second compound 3.16 µM, first compound 0.0316 µM): 51.2%
viability, T/C (second compound 3.16 µM, first compound 0.1 µM): 48.2%
viability, T/C (second compound 3.16 µM, first compound 0.316 µM): 50.6%
viability, T/C (second compound 3.16 µM, first compound 1 µM): 62%
viability, T/C (second compound 10 µM, first compound 0.00316 µM): 41.1%
viability, T/C (second compound 10 µM, first compound 0.01 µM): 45.2%
viability, T/C (second compound 10 µM, first compound 0.0316 µM): 36.4%
viability, T/C (second compound 10 µM, first compound 0.1 µM): 33.1%
viability, T/C (second compound 10 µM, first compound 0.316 µM): 30.8%
viability, T/C (second compound 10 µM, first compound 1 µM): 32.6%

CCC(CC)c1cc(NC2CCC(N)C2)n2nccc2n1 (stereo not drawn) + CCn1c(-c2cccnc2C(C)OC)c2c3cc(ccc31)N1CCOC(CC(NC(=O)C(C(C)C)N(C)C(=O)C3(F)CCN(C(=O)C#CC(C)(C)N(C)C)CC3)C(=O)N3CCCC(N3)C(=O)OCC(C)(C)C2)C1
IC50 (curve of first compound, second compound 0.000949 µM): 1880 nM
IC50 (curve of first compound, second compound 0.003 µM): 1810 nM
IC50 (curve of first compound, second compound 0.00949 µM): 1800 nM
IC50 (curve of first compound, second compound 0.03 µM): 1900 nM
IC50 (curve of first compound, second compound 0.0949 µM): 1660 nM
IC50 (curve of first compound, second compound 0.3 µM): 1460 nM
viability, T/C (second compound 0.000949 µM, first compound 0.0316 µM): 82.4%
viability, T/C (second compound 0.000949 µM, first compound 0.1 µM): 104%
viability, T/C (second compound 0.000949 µM, first compound 0.316 µM): 100%
viability, T/C (second compound 0.000949 µM, first compound 1 µM): 94.6%
viability, T/C (second compound 0.000949 µM, first compound 3.16 µM): 13.2%
viability, T/C (second compound 0.000949 µM, first compound 10 µM): 12.6%
viability, T/C (second compound 0.003 µM, first compound 0.0316 µM): 106%
viability, T/C (second compound 0.003 µM, first compound 0.1 µM): 88.4%
viability, T/C (second compound 0.003 µM, first compound 0.316 µM): 100%
viability, T/C (second compound 0.003 µM, first compound 1 µM): 81.5%
viability, T/C (second compound 0.003 µM, first compound 3.16 µM): 20.3%
viability, T/C (second compound 0.003 µM, first compound 10 µM): 9.28%
viability, T/C (second compound 0.00949 µM, first compound 0.0316 µM): 82.2%
viability, T/C (second compound 0.00949 µM, first compound 0.1 µM): 82.4%
viability, T/C (second compound 0.00949 µM, first compound 0.316 µM): 111%
viability, T/C (second compound 0.00949 µM, first compound 1 µM): 87.9%
viability, T/C (second compound 0.00949 µM, first compound 3.16 µM): 13.3%
viability, T/C (second compound 0.00949 µM, first compound 10 µM): 10.4%
viability, T/C (second compound 0.03 µM, first compound 0.0316 µM): 86.7%
viability, T/C (second compound 0.03 µM, first compound 0.1 µM): 90.8%
viability, T/C (second compound 0.03 µM, first compound 0.316 µM): 97.6%
viability, T/C (second compound 0.03 µM, first compound 1 µM): 90.5%
viability, T/C (second compound 0.03 µM, first compound 3.16 µM): 17.7%
viability, T/C (second compound 0.03 µM, first compound 10 µM): 12.2%
viability, T/C (second compound 0.0949 µM, first compound 0.0316 µM): 89.2%
viability, T/C (second compound 0.0949 µM, first compound 0.1 µM): 83.1%
viability, T/C (second compound 0.0949 µM, first compound 0.316 µM): 86.8%
viability, T/C (second compound 0.0949 µM, first compound 1 µM): 78.8%
viability, T/C (second compound 0.0949 µM, first compound 3.16 µM): 13.3%
viability, T/C (second compound 0.0949 µM, first compound 10 µM): 11.5%
viability, T/C (second compound 0.3 µM, first compound 0.0316 µM): 85.3%
viability, T/C (second compound 0.3 µM, first compound 0.1 µM): 77%
viability, T/C (second compound 0.3 µM, first compound 0.316 µM): 85.2%
viability, T/C (second compound 0.3 µM, first compound 1 µM): 68.3%
viability, T/C (second compound 0.3 µM, first compound 3.16 µM): 12.6%
viability, T/C (second compound 0.3 µM, first compound 10 µM): 11%

C[C@@H](NC(=O)c1ncnc(N)c1Cl)c1ncc(C(=O)Nc2cc(C(F)(F)F)c(Cl)cn2)s1
viability, T/C (compound 0.0316 µM): 105% [middle of 4 runs]
viability, T/C (compound 0.1 µM): 108% [middle of 4 runs]
viability, T/C (compound 0.316 µM): 115% and 99.1% and 103% (2×)
viability, T/C (compound 1 µM): 113% [middle of 4 runs]
viability, T/C (compound 3.16 µM): 99.6% [middle of 4 runs]
viability, T/C (compound 10 µM): 73.2% (2×) and 69.3% and 73.6%
IC50 (curve of compound): > 10000 nM

CC1(C)CCC(Nc2ncc(C(F)(F)F)c(-c3c[nH]c4c(P(C)(C)=O)c(C#N)ccc34)n2)CN1 (stereo not drawn)
viability, T/C (compound 0.000949 µM): 95.8% [middle of 4 runs]
viability, T/C (compound 0.003 µM): 89.1% [middle of 4 runs]
viability, T/C (compound 0.00949 µM): 92.5% and 92.7% and 87.3% (2×)
viability, T/C (compound 0.03 µM): 87.3% [middle of 4 runs]
viability, T/C (compound 0.0949 µM): 87.8% [middle of 4 runs]
viability, T/C (compound 0.3 µM): 76.5% [middle of 4 runs]
IC50 (curve of compound): > 300 nM
